test: Human HepG2 cell viability assay in 384 well format; type: toxicity, cell-based; parameters: dose 125 nL, time 70.5 hour; concentration not given beside the values; settings: HepG2 cells, read-out: Inhibition

| SMILES | cytotoxicity at 70.5 h [%] |
| --- | --- |
| c1ccc(CCN2CCN(c3ncnc4[nH]ccc34)CC2)cc1 | -3.03 |
| CNC(=O)CCc1cc(C)nc(C2CCN(CC(=O)N(C)C)CC2)c1 | -6.28 |
| O=C(Nc1cn[nH]c1)N(CCO)C1CCc2ccccc21 (stereo unspecified) | -13.9 |
| CN(C)C(=O)c1ccc2c(c1)N(C)C(CC(=O)NCCC(C)(C)C)CO2 (stereo unspecified) | -5.81 |
| Cc1cccc(C)c1NC(=O)NCC1CCCN(C2CCOCC2)C1 (stereo unspecified) | -8.66 |
| Cc1cc(NCc2csc(C)n2)no1 | -4.29 |
| O=C1COC2(COCCN(Cc3cccnc3)C2)CN1c1ccoc1 (stereo unspecified) | -9.07 |
| Cc1cccn2cc(C[S+]([O-])Cc3noc(C(C)C)n3)nc12 (stereo unspecified) | -1.76 |
| O=C(CNC(=O)C1CC1)NCC1CCCC1 | 4.06 |
| COc1cc2c(nn1)CCN(Cc1nnc(Cc3ccccc3)o1)C2 | -3.6 |
| CCO[C@@H]1CCN(c2ccc(C)nn2)[C@@H]1Cc1cnn(C)c1 | -10.9 |
| Cc1cccnc1CC(C)Nc1ncc(C)c(N(C)C)n1 (stereo unspecified) | 2.64 |
| Cc1ccc(-c2noc(CCC3CCN(C)CC3)n2)nn1 | -5.24 |
| CCNC(=O)N1CCC(NC(=O)NCCc2ccc(C)cc2C)C1 (stereo unspecified) | -3.65 |
| O=C(Cc1ccccc1F)N1CCN(Cc2noc(C3CC3)n2)CC1 | 10.8 |
| COCc1nc2cc(NCc3ccncc3)ccc2o1 | 16.6 |
| CN(C)CCOc1cc(NC(=O)COCC(F)(F)F)ccn1 | -2.8 |
| Cn1ccnc1CN(CCCO)CC(F)(F)F | 0.0577 |
| Cn1ccnc1CN1CCCN(C(=O)C2(C#N)CCCCC2)CC1 | 1.4 |
| Cc1cnn(CC2CN(c3ncnc4c3CCC4)CCO2)c1 (stereo unspecified) | -1.52 |
| CCC1CN(CC(=O)NCCOC)CCO1 (stereo unspecified) | -4.46 |
| Cc1cccc(N2CCN(C(=O)CCc3ccsc3)C(C)C2)n1 (stereo unspecified) | -23.2 |
| CCN1CCCC1CNC(=O)Cc1c(-c2ccc(Cl)cc2)n[nH]c1C (stereo unspecified) | 21.2 |
| COCC(=O)N1CCCC(COc2ccccc2C)C1 (stereo unspecified) | 12.8 |

| SMILES | cytotoxicity at 70.5 h [%] |
| --- | --- |
| CCS(=O)(=O)N1CCc2ccc(NC(=O)NC(C)(C)C)cc21 | -13.6 |
| Cc1nnc(CN2CCOC(c3ccc(Cl)cc3)C2)o1 (stereo unspecified) | 0.631 |
| Cn1nccc1C(=O)N1C[C@@H]2CC[C@H](Oc3cccc(F)c3)[C@@H]2C1 | -3.82 |
| CC(=O)C1(c2ccccc2)CCN(C(=O)C2CNCCO2)CC1 (stereo unspecified) | -7.25 |
| COc1nccnc1-c1cccc(-c2ccn(CC3COCCO3)n2)c1 (stereo unspecified) | -6.47 |
| Cc1cnc(N2CCC3(CC2)CC3C(=O)NCC2CC2)nc1 (stereo unspecified) | 11.9 |
| CC(C)Oc1cccc(C(=O)C2CCCN(C(=O)c3ccccn3)C2)c1 (stereo unspecified) | -8.75 |
| COc1ccc(CC(=O)N2CCN(Cc3ccco3)C[C@@H]2C)cc1OC | -3.94 |
| c1ccc(-c2cnc(CN3CCn4c(nnc4C4CC4)C3)o2)cc1 | -9.82 |
| NS(=O)(=O)CCCC(=O)N1CCC2(CC1)c1ccccc1CC2O (stereo unspecified) | -4.4 |
| CN(C)C(=O)c1cccn1-c1ccc2c(c1)OCCO2 | -2.2 |
| CC(NS(N)(=O)=O)c1ccc(OCc2ccc(F)cc2)cc1 (stereo unspecified) | -0.493 |
| CCCn1ccnc1-c1nccn1CCN(C)C | -2.58 |
| CS(=O)(=O)Nc1cnn(Cc2cccc(Cl)c2)c1 | -7.33 |
| Cn1cc(Cl)cc1C(=O)N1CCC2(CCCN(CC3CCC3)C2=O)C1 (stereo unspecified) | 18.1 |
| COc1ccc(C(CC(=O)O)NC(=O)CCc2cccs2)cc1OC (stereo unspecified) | 4.75 |
| Cc1nc(CCC(N)=O)cc(C2CCNCC2)n1 | 18.8 |
| CCOc1ccccc1OC1CCN(C(=O)c2cnns2)CC1 | -3.73 |
| Cc1cncnc1C1CCN(CC(N)=O)CC1 | -4.96 |
| Cc1csc(N2CCCN(C(=O)Cc3ccc(C)s3)CC2)n1 | 16.1 |
| Cc1noc([C@]23COC[C@H]2CN(C(C)C)C3)n1 | 1.38 |
| COc1ccc(NC(=O)C2CC2)cc1OCc1cccnc1 | 23 |
| CNC(=O)c1cn[nH]c1C1CCN(Cc2cn(C)nc2C)C1 (stereo unspecified) | -12.4 |
| O=C(NCCc1nnc[nH]1)Nc1cccc(SC(F)F)c1 | -9.47 |

| SMILES | cytotoxicity at 70.5 h [%] |
| --- | --- |
| Cc1cnc(C(=O)N(C)[C@@H]2CCC[C@@H](Oc3ccccc3)[C@@H]2O)cn1 | 16.9 |
| Cn1cc(CN2C[C@@H]3COC[C@]3(CNC(=O)c3ccccc3)C2)cn1 | -13.5 |
| CC(C)=CCN1CCN(Cc2cc(C)n[nH]2)CC1CCO (stereo unspecified) | 4.87 |
| COc1ccnc(CN2CCC=C(C(C)NC(C)=O)C2)c1OC (stereo unspecified) | -3.19 |
| CCc1cc(N2CCC(F)(F)CC2)n2nc(C)c(C)c2n1 | -7.1 |
| COCc1ccccc1CNC(=O)CN1CCCC1c1noc(C)n1 (stereo unspecified) | -2.27 |
| CSc1ccc(C(C)NC(=O)c2cc(C)on2)cc1 (stereo unspecified) | -4.63 |
| COCCC(=O)N1C[C@H]2CN(Cc3cccc(C)n3)C(=O)[C@H]2C1 | -11.1 |
| Cc1noc(C)c1CN1CCn2cc(CN3CCCC3)nc2C1 | -4.15 |
| O=S(=O)(NC1=NCN(CCc2cccs2)CN1)c1ccc(Cl)cc1 | -14.8 |
| CCc1ncncc1C(=O)N1CCCN(Cc2ccc(C)cc2)CC1 | 20.1 |
| O=C(NCC(F)(F)F)c1ccc(-n2cccn2)nn1 | 5.82 |
| Cc1cc(C)n(CC2CCCN2C(=O)c2cccc(C#N)c2)n1 (stereo unspecified) | -2.63 |
| CNC(=O)[C@@H]1C[C@@H](NC(=O)c2ccc(OC)o2)CN1Cc1sccc1C | 1.26 |
| CCCc1noc(C2CCCCN2C(=O)CCc2cnn(C)c2)n1 (stereo unspecified) | -0.695 |
| CCN1CCc2c(sc3c2C(=O)NC(/C=C\c2ccccc2)N3)C1 (stereo unspecified) | 16.4 |
| OC1(CN2CCOC(Cn3cncn3)C2)CCCCC1 (stereo unspecified) | 2.37 |
| NC(=O)C1CCN(C(=O)c2ccn(-c3cccc(Cl)c3)n2)C1 (stereo unspecified) | -17.8 |
| CC(C)N1CCC(c2cnc(-c3cn[nH]c3)cn2)CC1 | 2.32 |
| OCCN(Cc1cccnc1)c1ccc(Cl)cn1 | -2.8 |
| CC(C)Cc1noc(COc2ccc(N(C)C(N)=O)cc2)n1 | -6.27 |
| COCCN(Cc1ccoc1)C(=O)c1ccccc1OC | -1.89 |
| CCC(CC)C(=O)N1CCC(c2nn(CCN)c3nccnc23)C1 (stereo unspecified) | -4.84 |
| CCN1CCC2(CC1)CC(CC(=O)N(C)C)c1ccc(F)cc12 (stereo unspecified) | 33.5 |

| SMILES | cytotoxicity at 70.5 h [%] |
| --- | --- |
| Cc1ccc(S(=O)(=O)NC(=O)C2(c3ccc(F)cc3)CCC2)c(C)c1 | 26.9 |
| O=C1CN(CCCNC(=O)Nc2cccc(Cl)c2F)CCN1 | -2.99 |
| CC(CCc1ccc(O)cc1)NC1CCN(S(C)(=O)=O)CC1 (stereo unspecified) | -4.22 |
| O=C(CC1CCCCC1)N1CCOCC1CO (stereo unspecified) | -14.9 |
| COCCN(C)CCN1CC2(CCN(C3CCCOC3)CC2)OC1=O (stereo unspecified) | 3.4 |
| CN1CCC(C(=O)N2CCN(Cc3cccc(Cl)c3)CC2)CC1=O (stereo unspecified) | 3.2 |
| CCC(=O)N(C)Cc1cccc(OC(C)C)c1 | -5.79 |
| CC(C)(C)c1ncc2c(n1)CN(C(=O)C(C)(C)n1cccc1)C2 | -6.39 |
| CN1CCCN(C(=O)NCc2csc(Br)c2)CC1 | -6.63 |
| COCCc1noc(-c2cc(Cl)c3c(c2)OCCCO3)n1 | -19.1 |
| O=C(NC1(C(=O)NC2CCCC2)CCCC1)c1ccc2[nH]ncc2c1 | -8.68 |
| Cc1ccc2c(c1)C(=O)NCC1(CCN(C(=O)c3sccc3C)CC1)O2 | -5.39 |
| Cc1cnc2n1CCN(C)C21CCN(CC2CC2)CC1 | -0.923 |
| CCc1nc2c(s1)C(N(C)C(=O)c1cc[nH]n1)CCC2 (stereo unspecified) | -10.2 |
| O=C(O)c1ccccc1-c1cnc(Cn2c(=O)cc[nH]c2=O)s1 | -6.43 |
| O=C(Cn1c(=O)nc2n1C(=O)N(c1ccccc1)C2)Nc1ccccc1 | -7.97 |
| O=C(O)[C@H]1OCC(=O)N(Cc2cccc(Cl)c2)[C@@H]1c1ccccc1 | -6.12 |
| Cc1nn(CCC(=O)NC2CCCOC2)c(C)c1C (stereo unspecified) | -1.37 |
| CN1CC2(CCN(C(=O)c3coc4c3C(=O)CCC4)C2)OC1=O (stereo unspecified) | -6.28 |
| c1cnnc(N2CCCC2CNCc2cscn2)c1 (stereo unspecified) | -15 |
| CCc1noc(-c2cccc(C(=O)O)c2)n1 | 23.7 |
| O=C(Nc1ccc(-c2ccco2)cc1)C1CCCN(Cc2ccon2)C1 (stereo unspecified) | 1.57 |
| Cc1cccc(CC(=O)N2CCCC(N(C)CCCN(C)C)C2)c1 (stereo unspecified) | -4.84 |
| O=C(c1cc(CC2(NCc3ccccc3)COC2)no1)N1CCCCC1 | -5.63 |

| SMILES | cytotoxicity at 70.5 h [%] |
| --- | --- |
| O=C(O)c1ccn(-c2cccc(NC(=O)c3ccccc3Cl)c2)n1 | -6.97 |
| O=C(CO[C@@H]1CC[C@H]2[C@H]1OCCN2CC1CCOCC1)N1CCCC1 | -0.662 |
| Cc1csc(C(Cc2ccsc2)NC(=O)C2CCN(S(C)(=O)=O)CC2)n1 (stereo unspecified) | -10 |
| CCN(CC)C(=O)c1nc2c(s1)CCN(C(=O)CCC(=O)OC)CC2 | 3.92 |
| CCc1nn(C)c(Cl)c1CN1CCN(c2nc(C(N)=O)cs2)CC1 | -3.53 |
| Cn1ccc(C2CCCCN2C(=O)c2cccc(Cn3cccn3)c2)n1 (stereo unspecified) | 8.89 |
| CCn1nc(C)c2nc(C(C)C)nc(NCCOC)c21 | -5.06 |
| Cc1cn2c(n1)CCC(NC(=O)CCn1ccnn1)C2 (stereo unspecified) | -8.67 |
| CNC(=O)c1ccc(CN(C(C)C)C(C)C)o1 | -4.83 |
| O=C(CC1=CCCCC1)Nc1ccc(CN2C(=O)CCC2=O)cc1 | -3.73 |
| CN1CCN(C(=O)c2cc(-c3ccco3)cs2)CC1 | -20.5 |
| O=C(c1cc[nH]n1)N1CCC2(CC1)CC(Oc1cccnc1)CO2 (stereo unspecified) | 8.68 |
| Cc1noc(CN2CCCC(Cn3nc(C)nc3C)C2)n1 (stereo unspecified) | -6.06 |
| Cc1cnc(N2C[C@@H]3CCN(CC(=O)N(C)C)C(=O)[C@H]3C2)nc1 | 4.34 |
| O=C1CC2(CCCCN2C(=O)c2cccs2)CN1CC1CC1 (stereo unspecified) | 3.54 |
| O=C(Nc1cc(C2CCOCC2)[nH]n1)c1cc[nH]n1 | -4.17 |
| COCC1CN(C(=O)N2CCCC2)Cc2cnn(CC3CCCC3)c21 (stereo unspecified) | -1.96 |
| CCOCC1CN(C)Cc2cnn(CC3CCCC3)c21 (stereo unspecified) | -5.11 |
| CCOC(=O)CCNC(=O)N1CCCC(CNC(=O)c2ccco2)C1 (stereo unspecified) | 3.18 |
| N#Cc1ccc(Cn2cncn2)c(F)c1 | -12.7 |

Reference: ChEMBL document CHEMBL3507680, “University of Dundee, Gates Library screen for HepG2 cell viability”
